Measured values from US5434133A, “CNP analog peptides and their use” (Suntory Limited, priority 1991, dated 1995).
Entries after “also recorded” stand apart in the source; their conditions may differ. Where a SMILES comes first, the peptide text is derived from it. Bridges are numbered along the chain shown (N, C = ends). Where no end group is shown, it is not given here.

What was measured:
[1] = system: cultured vascular smooth muscle cells (VSMC) derived from the aortas of rats; assay: Cell growth suppressing activity: [3H] thymidine uptake (DNA synthesis inhibition) in VSMC; format: cell-based, rat; details: for % Inhibition of 3H-thymidine uptake: 0.1 μm of each peptide, BSMC line stimulated with PDGF (20 ng/ml); for intensity of DNA synthesis / cell growth suppressing action relative to α-hANP: rat VSMC, compared with α-hANP
Procedure: 1-2: Measurement of Cell Growth Suppressing Activity
Cell growth suppressing activity was evaluated in accordance with the method of Kariya et al. (Atherosclerosis, 80, 143-147, 1990) by measuring the uptake of [^3 H] thymidine into cells as an indicator of percent DNA synthesis inhibition using the above-identified VSMC. Cells tuned to a stationary phase were incubated at 37° C. for 14 h with each sample added in the presence of 1% serum or 20 ng/ml of PDGF (platelet derived growth factor). Then, following the addition of 37 kBq/ml of [^3 H] thymidine, the incubation was continued for another 4 h and the radioactivity of [^3 H] thymidine incorporated into the cells was measured. The values of measurement were such that the uptake of [^3 H] thymidine for the case where only 1% serum or PDGF was added in the absence of peptide was taken as 100%, with the percent suppression due to the peptide addition being accordingly calculated.

[2] = system: cultured vascular smooth muscle cells (VSMC) derived from the aortas of rats; assay: cGMP producing activity in cultured VSMC (cGMP radioimmunoassay); format: cell-based, rat; details: for cGMP producing activity (in words): comparison with CNP-22 or α-hANP; for cGMP producing activity (% increase for 1 μm): specific activity compared to 1 μm α-hANP (2000 fmol/400000 cells) = 100, peptide at 1 μm
Procedure: 1-1: Measurement of CGMP Producing Activity
The above-mentioned activity of compounds synthesized according to the present invention was measured by the methods of Hirata et al. (Biochem. Biophys. Res. Commun., 128, 538, 1985) and Scarborough et al. (J. Biol. Chem., 261, 12960, 1986). The cells used were cultured vascular smooth muscle cells (hereunder abbreviated as VSMC) derived from the aortas of rats. From 10^-9 to 10^-6 M of α-hANP or a 20 peptide of interest was incubated together with VSMC and the amount cGMP produced was measured by cGMP radioimmunoassay. Percent maximum reactivity for each peptide, with the value of maximum reactivity for α-hANP being taken as 100%, was used as an indicator of activity.

[3] = system: cultured vascular smooth muscle cells (VSMC) derived from the aortas of rats; details: Furuya et al. 1990; cited from earlier work

Molecule	% Inhibition of 3H-thymidine uptake [1] [%]	cGMP producing activity (in words) ([2]; rat VSMC)	cGMP producing activity (% increase for 1 μm) [2] [%]	cGMP producing activity relative to α-hANP ([2]; rat VSMC, times as high activity as α-hANP)	increase of intracellular cGMP level in VSMC compared with ANP or BNP [3]	intensity of DNA synthesis / cell growth suppressing action relative to α-hANP [1] [times]	suppression of DNA synthesis of rat VSMC (in words) ([1]; FIGS. 2, 3 and 4)
CC[C@H](C)[C@@H]1NC(=O)[C@H](CCCNC(=N)N)NC(=O)[C@H](CC(=O)O)NC(=O)[C@H](CCSC)NC(=O)[C@H](CCCNC(=N)N)NC(=O)CNC(=O)CNC(=O)[C@H](Cc2ccccc2)NC(=O)[C@@H](NC(=O)CNC(=O)[C@H](CCCCN)NC(=O)[C@H](CO)NC(=O)[C@H](CC(C)C)NC(=O)CN)CSSC[C@@H](C(=O)N[C@@H](CC(N)=O)C(=O)N[C@@H](CO)C(=O)N[C@@H](Cc2ccccc2)C(=O)N[C@@H](CCCNC(=N)N)C(=O)N[C@@H](Cc2ccc(O)cc2)C(=O)O)NC(=O)[C@H](CCC(=O)O)NC(=O)[C@H](CC(C)C)NC(=O)[C@H](CCC(=O)O)NC(=O)[C@H](CO)NC(=O)[C@H](CCC(N)=O)NC(=O)[C@H](C)NC(=O)CNC1=O [Compound 2, H-Gly-Leu-Ser-Lys-Gly-Cys-Phe-Gly-Gly-Arg-Met-Asp-Arg-Ile-Gly-Ala-Gln-Ser- Glu-Leu-Glu-Cys-Asn-Ser-Phe-Arg-Tyr-OH] (H-GLSKGCFGGRMDRIGAQSELECNSFRY-OH; disulfide 6-22)	38	only a weak cGMP producing activity at a level comparable to α-hANP	147				
CC[C@H](C)[C@@H]1NC(=O)[C@H](CCCNC(=N)N)NC(=O)[C@H](CC(=O)O)NC(=O)[C@H](CC(C)C)NC(=O)[C@H](CCCCN)NC(=O)[C@H](CC(C)C)NC(=O)CNC(=O)[C@H](Cc2ccccc2)NC(=O)[C@@H](N)CSSC[C@@H](C(=O)O)NC(=O)CNC(=O)[C@H](CC(C)C)NC(=O)CNC(=O)[C@H](CO)NC(=O)[C@H](CCSC)NC(=O)[C@H](CO)NC(=O)CNC1=O [Compound 5, CFGLKLDRIGSMSGLGC] (H-CFGLKLDRIGSMSGLGC-OH; disulfide 1-17)	65	strong cGMP producing activity at a comparable level to that exhibited by CNP-22	616				
CC[C@H](C)[C@@H]1NC(=O)[C@H](CCCNC(=N)N)NC(=O)[C@H](CC(=O)O)NC(=O)[C@H](CC(C)C)NC(=O)[C@H](CCCCN)NC(=O)CNC(=O)CNC(=O)[C@H](Cc2ccccc2)NC(=O)[C@@H](NC(=O)CNC(=O)[C@H](CCCCN)NC(=O)[C@H](CO)NC(=O)[C@H](CC(C)C)NC(=O)CN)CSSC[C@@H](C(=O)O)NC(=O)CNC(=O)[C@H](CC(C)C)NC(=O)CNC(=O)[C@H](CO)NC(=O)[C@H](CCSC)NC(=O)[C@H](CO)NC(=O)CNC1=O [Compound 6] (H-GLSKGCFGGKLDRIGSMSGLGC-OH; disulfide 6-22)	49	lower activity than CNP-22 (but higher than that of α-hANP); also recorded: lower in cGMP producing activity than the other one- and two-residue substituted derivatives	344				
CC[C@H](C)[C@@H]1NC(=O)[C@H](CCCNC(=N)N)NC(=O)[C@H](CC(=O)O)NC(=O)[C@H](CCSC)NC(=O)[C@H](CCCNC(=N)N)NC(=O)CNC(=O)CNC(=O)[C@H](Cc2ccccc2)NC(=O)[C@@H](NC(=O)CNC(=O)[C@H](CCCCN)NC(=O)[C@H](CO)NC(=O)[C@H](CC(C)C)NC(=O)CN)CSSC[C@@H](C(=O)O)NC(=O)CNC(=O)[C@H](CC(C)C)NC(=O)CNC(=O)[C@H](CO)NC(=O)[C@H](CCSC)NC(=O)[C@H](CO)NC(=O)CNC1=O [Compound 14] (H-GLSKGCFGGRMDRIGSMSGLGC-OH; disulfide 6-22)	17	marked drop in activity	23				
CC[C@H](C)[C@@H]1NC(=O)[C@H](CCCNC(=N)N)NC(=O)[C@H](CC(=O)O)NC(=O)[C@H](CC(C)C)NC(=O)[C@H](CCCCN)NC(=O)[C@H](CC(C)C)NC(=O)CNC(=O)[C@H](Cc2ccccc2)NC(=O)[C@@H](N)CSSC[C@@H](C(=O)N[C@@H](CC(N)=O)C(=O)N[C@@H](CO)C(=O)N[C@@H](Cc2ccccc2)C(=O)N[C@@H](CCCNC(=N)N)C(=O)N[C@@H](Cc2ccc(O)cc2)C(=O)O)NC(=O)CNC(=O)[C@H](CC(C)C)NC(=O)CNC(=O)[C@H](CO)NC(=O)[C@H](CCC(N)=O)NC(=O)[C@H](C)NC(=O)CNC1=O [Compound 15, [Leu10, Lys11, Leu12] α-hANP (7-28)] (H-CFGLKLDRIGAQSGLGCNSFRY-OH; disulfide 1-17)	72	strong cGMP producing activity at a substantially comparable level to CNP-22	559	4-6 times			
CNP: C-type natriuretic peptide, named generically in the text (GLSKGCFGLKLDRIGSMSGLGC; disulfide 6-22 (inferred); ends not checked; UniProt P23582 105-126, looked up) [reference compound]					several times as much	10	
hCNP-53: human CNP-53, CNP-22 with 31 amino acid residues attached to the N-terminus (DLRVDTKSRAAWARLLQEHPNARKYKGANKKGLSKGCFGLKLDRIGSMSGLGC; disulfide 37-53 (inferred); ends not checked; UniProt P23582 74-126, looked up) [reference compound]	71		458			10	suppress the DNA synthesis of rat VSMC in a dose-dependent manner
